Test results reported in patent US6420367B1, “Pyrimidine derivatives exhibiting antitumor activity” (Shionogo & Co., Ltd., priority 1998, dated 2002).
Converted amounts (≈) assume the structure as drawn.

How the values were obtained:
[1] = tested on: DT-R cells (pRRE3-luc-transfected v-ki-ras-transformed NIH3T3 cells); signal derived from Ras oncogene products; test: Inhibitory effect against cellular signaling derived from Ras oncogene products: luciferase reporter, dissociation of DT-R from DT-C activity (MAC); assay type: cell-based, mouse; conditions: minimal tested concentration at which luciferase activities of DT-C cells and DT-R cells dissociated
Method in brief: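 Value is a minimal active concentration: lowest dose where Ras-responsive reporter (DT-R) luciferase diverges from SV40-minimal-promoter control (DT-C). Both transfected v-Ki-ras NIH3T3 lines received 3-fold serial dilutions for 24 h at 37 °C in 10% FCS medium before lysis and luminometry.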

[2] = tested on: DT-C cells (pGV-P-transfected v-ki-ras-transformed NIH3T3 cells); test: Luciferase activity in control DT-C cells (IC50-C): non-specific transcription-inhibitory effect or cytotoxicity; assay type: cell-based, mouse; conditions: tested concentration nearest to 50% inhibition in DT-C cells; index of non-specific transcription inhibition or cytotoxicity
Text: Test Example 1 Inhibitory Effect Against Cellular Signaling Derived From Ras Oncogene Products
1) Establishment of Cell Lines Used in Assay
Based on the reporter plasmid (pGV-P (Toyo Ink, Japan)), in which luciferase gene was ligated to SV40-derived minimal promoter, we constructed a plasmid designated pRRE3-luc by inserting 3 copies of chemically synthesized oligonucleotides (Sequence: CAGGATATGACTCT, derived from mouse NVL-3 (M. A. Reddy et al.(1992)Mol. Endocrinol., 6, 1051)) into upstream of the promoter. v-ki-ras-transformed NIH3T3 cells (DT cells, provided by Dr. Makoto Noda (Kyoto Univ., School of medicine)) were transfected with this plasmid by liposome-mediated transfection and transfected cell lines stably incorporated and maintained each plasmid were obtained. We named pGV-P and pRRE3-transfected cell line as DT-C and DT-R, respectively and used in the assay described below.
2) Preparation of Samples
i) All the cell lines were cultured in Dulbecco's Modified Essential Medium (DMEM: 10% Fetal Calf Serum(FCS: Hyclone, USA)) including […] kanamycin (Meiji Seika, Japan) in humidified incubator under condition of 5% CO2 at 37° C.
ii) DT-C and DT-R cells were seeded at 2500 cells/well into flat-bottom 96 well multiplate (Sumitomo bakelite) and incubated for 24 hours.
iii) Test compounds were prepared as 1 mg/ml DMSO solution.
iv) The solution of test compounds were added to the culture. Tested compounds are used at the concentration from […] to 0.51 ng/ml with by 3-fold dilution.
v) After 24 hours, the culture supernatant was completely aspirated and […] of cell-lysing solution (PGC-50 (Toyo Ink, Japan)) was added before cells were dried up. In order to the cells were lysed completely, multiwell plates were left at room temperature for 10 to 30 min. The plates were wrapped up and stored at −20° C. till the day of measurement.
3) Measurement of Samples
i) Melt the samples by putting 96 well multiplate at 37° C. and add 90 μl/well 25 mM Tris (pH 7.5).
ii) Transfer 50 μl of the sample (110 μl) to the 96 well microplate for measurement (Microlite 1 (Dynatech)).
iii) Measure the samples by the luminometer, LUMINOUS CT9000D (Dia-Yatron, Japan). We used Pickagene luminescence kit PGL2000 or LT2.0 (Toyo Ink, Japan) as substrates for luminescence measurement (50 μl/well).
4) Judgment of the Results
i) The luciferase activity of DT-C cells and DT-R cells were plotted in the graph where the relative activity and the compound concentration were expressed as Y-axis and X-axis, respectively. We judged by the degree of dissociation between the activities of DT-C cells and DT-R cells as an index.
ii) Concretely, efficacy of the compound was expressed by two values described below.
b) Among the points of concentration tested, the concentration which is the nearest to 50% inhibition concentration at DT-C cells (IC50-C), was shown as an index of non-specific transcription-inhibitory effect or of cytotoxicity. In case of positive compounds, 50% inhibition concentration above the area of active concentration in DT-C cells was expressed as IC50-C.

[3] = tested on: human squamous lung cancer Ma44; test: In vitro cell growth inhibition test, MTT assay; assay type: cell-based; conditions: MTT assay 4 days after compound addition
Method in brief: (§1)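 Read-out is MTT-based cell growth inhibition, run in parallel on human lung, colon and pancreatic (PANC-1) tumour lines.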

[4] = tested on: human squamous lung cancer RERF-RC-AI; test: In vitro cell growth inhibition test, MTT assay; assay type: cell-based; conditions: MTT assay 4 days after compound addition
Method in brief: as §1

[5] = tested on: human lung adenocarcinoma A549; test: In vitro cell growth inhibition test, MTT assay; assay type: cell-based; conditions: MTT assay 4 days after compound addition
Method in brief: as §1

[6] = tested on: human pancreas cancer PANC-1; test: In vitro cell growth inhibition test, MTT assay; assay type: cell-based; conditions: MTT assay 4 days after compound addition
Method in brief: as §1

human colon cancer HT29 = test: In vitro cell growth inhibition test, MTT assay; assay type: cell-based; conditions: MTT assay 4 days after compound addition
Method in brief: as §1

SMILES	IC50, Ma44 [3]	IC50, RERF-LC-AI [4]	IC50, A549 [5]	IC50, PANC-1 [6]	IC50, HT29 (human colon cancer HT29)	MAC (Minimal Active Concentration) [1]	IC50-C [2]
CCNC(=Nc1nc(C)ncc1CSc1nnc(-c2ccsc2N)o1)NCC [Compound D-8]	0.036 µg/mL (≈ 0.086 µM)	0.012 µg/mL (≈ 0.0287 µM)	0.027 µg/mL (≈ 0.0645 µM)	0.013 µg/mL (≈ 0.0311 µM)	0.03 µg/mL (≈ 0.0717 µM)	0.0412 µg/mL	>10 µg/mL
CCNC(=Nc1nc(C)ncc1CSc1nnc(-c2ccc([N+](=O)[O-])cc2OC)o1)NCC [Compound A-161]	0.0071 µg/mL (≈ 0.015 µM)	0.0068 µg/mL (≈ 0.0144 µM)	0.012 µg/mL (≈ 0.0254 µM)	0.0053 µg/mL (≈ 0.0112 µM)	0.0055 µg/mL (≈ 0.0116 µM)	0.0412 µg/mL	>10 µg/mL
CCCNC(=Nc1nc(CC)ncc1CSc1nnc(-c2ccc([N+](=O)[O-])cc2)o1)NCC [Compound A-149]	0.085 µg/mL (≈ 0.181 µM)	0.026 µg/mL (≈ 0.0553 µM)	0.025 µg/mL (≈ 0.0531 µM)	0.041 µg/mL (≈ 0.0871 µM)	0.034 µg/mL (≈ 0.0723 µM)	0.123 µg/mL	3.33 µg/mL (≈ 7.08 µM)
CCCNC(=Nc1nc(CC)ncc1CSc1nnc(-c2ccc(F)cc2N)o1)NCCC [Compound A-140]	0.047 µg/mL (≈ 0.0995 µM)	0.015 µg/mL (≈ 0.0317 µM)	0.022 µg/mL (≈ 0.0466 µM)	0.012 µg/mL (≈ 0.0254 µM)	0.013 µg/mL (≈ 0.0275 µM)	0.0137 µg/mL	3.33 µg/mL (≈ 7.05 µM)
CCNC(=Nc1nc(C)ncc1CSc1nnc(-c2ccc(N)cc2)o1)NC(C)C [Compound A-182]	0.016 µg/mL (≈ 0.0375 µM)	0.0056 µg/mL (≈ 0.0131 µM)	0.014 µg/mL (≈ 0.0328 µM)	0.0073 µg/mL (≈ 0.0171 µM)	0.011 µg/mL (≈ 0.0258 µM)	0.0137 µg/mL	3.3 µg/mL (≈ 7.74 µM)
CNC(=Nc1nc(C)ncc1CSc1nnc(-c2ccc([N+](=O)[O-])cc2)o1)NC [Compound A-145]	0.032 µg/mL (≈ 0.0772 µM)	0.005 µg/mL (≈ 0.0121 µM)	0.09 µg/mL (≈ 0.217 µM)	0.014 µg/mL (≈ 0.0338 µM)	0.007 µg/mL (≈ 0.0169 µM)	0.0412 µg/mL	>10 µg/mL
CCc1ncc(CSc2nnc(-c3ccc([N+](=O)[O-])cc3)o2)c(N=C(NC)NC)n1 [Compound A-152]	0.039 µg/mL (≈ 0.091 µM)	0.006 µg/mL (≈ 0.014 µM)	0.069 µg/mL (≈ 0.161 µM)	0.013 µg/mL (≈ 0.0303 µM)	0.082 µg/mL (≈ 0.191 µM)	0.123 µg/mL	>10 µg/mL

More lines, main results first:

IC50, Ma44 [3]	IC50, RERF-LC-AI [4]	IC50, A549 [5]	IC50, PANC-1 [6]	IC50, HT29 (human colon cancer HT29)	SMILES	MAC (Minimal Active Concentration) [1]	IC50-C [2]
0.2 µg/mL (≈ 0.485 µM)	0.023 µg/mL (≈ 0.0558 µM)	1.2 µg/mL (≈ 2.91 µM)	0.068 µg/mL (≈ 0.165 µM)	0.1 µg/mL (≈ 0.242 µM)	CCNC(=Nc1ncncc1CSc1nnc(-c2ccc(CN)cc2)o1)NCC [Compound A-119]	0.37 µg/mL	>10 µg/mL
0.055 µg/mL (≈ 0.143 µM)	0.024 µg/mL (≈ 0.0624 µM)	0.07 µg/mL (≈ 0.182 µM)	0.049 µg/mL (≈ 0.127 µM)	0.04 µg/mL (≈ 0.104 µM)	CCNC(=Nc1ncncc1CSc1nnc(-c2ccncc2)o1)NCC [Compound D-41]	1.11 µg/mL	>10 µg/mL
0.062 µg/mL (≈ 0.133 µM)	0.018 µg/mL (≈ 0.0386 µM)	0.1 µg/mL (≈ 0.214 µM)	0.05 µg/mL (≈ 0.107 µM)	0.024 µg/mL (≈ 0.0515 µM)	CCNC(=Nc1nc(C)ncc1CSc1nnc(-c2ccc(Cl)cc2Cl)o1)NCC [Compound A-80]	0.370 µg/mL	3.33 µg/mL (≈ 7.14 µM)
